Measurements: PMC12169104, “Towards the development of supramolecular self-associating amphiphiles as antibiofilm agents against Pseudomonas aeruginosa and Candida albicans biofilms” (Journal of Materials Chemistry. B, 2025)
“And” between values parts separate entries of the source, which are not always exact repeats. Equal values may be shown once.

How the values were obtained:
[1] = Calcein loaded vesicle leakage (lysis) assay; details: 298 K, PBS buffer 5% EtOH
Experimental: To gauge the activity and selectivity of 1–5 and a–j against microbial membranes, a series of synthetic model vesicle systems were prepared, containing a variety of common bacterial membrane phospholipid headgroups: (i) phosphatidylglycerol (PG) only; (ii) phosphatidylethanolamine (PE) : PG 3 : 1 and; (iii) PE : PG 1 : 1.[50] Following our previous work in this area, we first quantified the ability of 1–5 and co-formulations a–j to lyse the aforementioned synthetic model phospholipid vesicle systems.[49] […] Here the fluorescent dye calcein was loaded into synthetic vesicles at a concentration where the dye self-quenches (70 mM). When the vesicle is lysed, the calcein is released to the extravesicular solution, effectively reducing calcein concentration to a point where the dye no longer undergoes self-quenching. Through comparison to a positive control experiment, in which 100% vesicle lysis was achieved through the addition of 2% X-100 Triton, the proportion of vesicles to undergo lysis in the presence or absence of SSA can be calculated. The data was then fitted to the Hill or linear equation to determine the effective concentration of SSA needed to lyse 50% of the vesicles present in solution (EC50) (Section S14, ESI ^†).[51] […]
Preparation of vesicles: All lipids were purchased as powder stocks from Avanti Polar Lipids. Lipid vesicles were prepared according to standard procedures. Each phospholipid (~ 20 mg) was dissolved in chloroform: methanol 3:1 (~ 10 mL) and the solvent was removed under reduced pressure. The thin film of dried lipid was further dried in vacuo overnight. Lipid films were resuspended in the desired buffer and subjected to 10 freeze-thaw cycles in liquid nitrogen and extruded 19 times through a 200 nm polycarbonate membrane.
Preparation of calcein loaded vesicles:2 Lipid films were resuspended in calcein dye (70 mg calcein, 865 µL deionized H2O, 135 µL NaOH (2 M), with NaOH added dropwise until calcein dissolved) and subjected to 10 freeze-thaw cycles in liquid nitrogen and extruded 19 times through a 200 nm polycarbonate membrane. The suspension was run down a size exclusion column packed with sephadex G-50 using 1 X PBS. The hydrodynamic dimeter of the lipids was monitored using an Anton Paar LitesizerTM 500 to ensure the separation of free and entrapped calcein. Phospholipid concentration was adjusted to 60 µM for vesicle leakage experiments.
Vesicle leakage assay: Black bottom 96-well plates were prepared by serially diluting desired SSA in a EtOH: H2O 1:19 solution across the plate, the appropriate lipid solution (100 µL, 60 µM) was added to each well to give a total well volume of 200 µL. A solution of 2 % Triton X-100 was used for a 100 % lysis control and a EtOH: H2O 1:19 solution was used as a 0 % lysis control. Fluorescent measurements were taken at 25 °C using an excitation value of 495 nm and an optimised gain of 800. Data were acquired in endpoint mode. […]
For fluorescent labelling, the desired vesicles were pre-incubated with DPH (10 µM) at 60 °C for 1 hour.
Membrane fluidity assay: Black bottom 96-well plates were prepared by serially diluting desired SSA in a EtOH: H2O 1:19 solution across the plate, the appropriate DPH labelled vesicles (100 µL, 60 µM) were added to each well to give a total well volume of 200 µL. FP measurements were taken at 25 °C using a 355 nm filter for excitation and a 430 m for emission. […]
Figure S168 – Average (n=3) […] readings of calcein loaded PE:PG 3:1 lipid vesicles (λem = 515 nm) following the addition of j at varying concentrations. Lysis value is triton (1 %). Blue = 1 minute, purple = 5 minutes, pink = 10 minutes, orange = 15 minutes, red = 20 minutes. Error = standard […]
Section S14: Determination of vesicle lysis EC50 values
Data was originally fitted to the Hill equation using origin software. If the fitting of these vesicle lysis data to the Hill equation failed then the data were fitted to a linear line of best fit to estimate EC50 […]
above 0.1 mM. […]

[2] = system: polymicrobial biofilms of C. albicans (SC5314) and P. aeruginosa (PAO1); parameters: method as in PMID 38222503; details: 0.16 mM, XTT assay, Fig. 8(c); cited from earlier work
[3] = cited from earlier work; for CAC / CAC (mM) / ST at CAC (mN m^−1): H2O:EtOH 19:1, approx. 291 K; for CAC / CAC (mM): surface tension measurements; for ST at CAC (mN/M): Table S1, same datum as Table 1
[4] = PE:PG 1:1 vesicles, 1 min (Timepoint 1 in Table S14)
[5] = PE:PG 1:1 vesicles, 5 min (Timepoint 2 in Table S14)
[6] = PE:PG 1:1 vesicles, 10 min (Timepoint 3 in Table S14)
[7] = PE:PG 1:1 vesicles, 15 min (Timepoint 4 in Table S14)
[8] = PE:PG 1:1 vesicles, 20 min (Timepoint 5 in Table S14)
[9] = PE:PG 3:1 vesicles, 1 min (Timepoint 1 in Table S13)
[10] = PE:PG 3:1 vesicles, 5 min (Timepoint 2 in Table S13)
[11] = PE:PG 3:1 vesicles, 10 min (Timepoint 3 in Table S13)
[12] = PE:PG 3:1 vesicles, 15 min (Timepoint 4 in Table S13)
[13] = PE:PG 3:1 vesicles, 20 min (Timepoint 5 in Table S13)
[14] = PG vesicles, 1 min (Timepoint 1 in Table S12), total molar concentration
[15] = PG vesicles, 5 min (Timepoint 2 in Table S12)
[16] = PG vesicles, 10 min (Timepoint 3 in Table S12)
[17] = PG vesicles, 15 min (Timepoint 4 in Table S12)
[18] = PG vesicles, 20 min (Timepoint 5 in Table S12)

Structure (SMILES) | EC50 [1, 4] | EC50 [1, 5] | EC50 [1, 6] | EC50 [1, 7] | EC50 [1, 8] | EC50 [1, 9] | EC50 [1, 10] | EC50 [1, 11] | EC50 [1, 12] | EC50 [1, 13] | EC50 [1, 14] | EC50 [1, 15] | EC50 [1, 16] | EC50 [1, 17] | EC50 [1, 18] | antibiofilm activity [2] | CAC [3] | CAC (mM) [3] | ST at CAC (mN m^−1) [3] | ST at CAC (mN/M) [3]
O=C(O)CNC(=S)Nc1ccc(C(F)(F)F)cc1 [SSA 2] | > 1.5 mM | 1.43 mM | 0.83 mM | 0.661 mM | 0.585 mM | > 1.5 mM | > 1.5 mM | > 1.5 mM | > 1.5 mM | 1.15 mM | > 1.5 mM | 1.14 mM | 0.727 mM | 0.563 mM | 0.49 mM | 60–80% |  |  |  | 
O=S(=O)(O)CCCNC(=S)Nc1ccc(C(F)(F)F)cc1 [SSA 1] | 0.055 mM and 0.0549 mM | 0.01 mM and 0.0095 mM | 0.0048 mM | 0.002 mM | 0.002 mM and 0.0015 mM | 0.0302 mM | 0.009 mM | 0.004 mM | 0.002 mM and 0.0022 mM | 0.002 mM and 0.0017 mM | 0.0677 mM | 0.032 mM | 0.0156 mM | 0.0062 mM | 0.0037 mM | 60–80% | 5.61 mM | 5.6[43] mM | 34[43] mN m^−1 | 33.59 mN/M

Further lines, with some results ahead:

EC50 [1, 4] | EC50 [1, 5] | EC50 [1, 6] | EC50 [1, 7] | EC50 [1, 8] | EC50 [1, 9] | EC50 [1, 10] | EC50 [1, 11] | EC50 [1, 12] | EC50 [1, 13] | EC50 [1, 14] | EC50 [1, 15] | EC50 [1, 16] | EC50 [1, 17] | EC50 [1, 18] | Structure (SMILES) | antibiofilm activity [2] | CAC [3] | CAC (mM) [3] | ST at CAC (mN m^−1) [3] | ST at CAC (mN/M) [3]
> 1.5 mM | > 1.5 mM | 1.33 mM | 0.953 mM | 0.829 mM | > 1.5 mM | > 1.5 mM | > 1.5 mM | > 1.5 mM | > 1.5 mM | 0.867 mM | 0.615 mM | 0.529 mM | 0.15 mM | 0.17 mM | Cc1ccc2nc(-c3ccc(NC(=O)NCS(=O)(=O)O)cc3)sc2c1 [SSA 3] |  | 0.5 mM | 0.5[42] mM | 47[42] mN m^−1 | 46.5 mN/M
> 1.5 mM | 0.302 mM | 0.129 mM | 0.1 mM | 0.234 mM | > 1.5 mM | > 1.5 mM | 0.683 mM | 0.54 mM | 0.429 mM | > 1.5 mM | 0.641 mM | 0.13 mM | 0.088 mM | 0.061 mM | O=C(O)CNc1c(Nc2ccc(C(F)(F)F)cc2)c(=O)c1=O [SSA 5] |  |  |  |  | 
> 1.5 mM | > 1.5 mM | 0.948 mM | 0.675 mM | 0.574 mM | > 1.5 mM | > 1.5 mM | 1.18 mM | 0.95 mM | 0.91 mM | 1.02 mM | 0.396 mM | 0.341 mM | 0.288 mM | 0.218 mM | O=c1c(NCCCS(=O)(=O)O)c(Nc2ccc(C(F)(F)F)cc2)c1=O [SSA 4] |  |  |  |  | 
